Key:
[1] = test system: leaky scanning from cap-proximal AUG in HEK293T cells; test: Leaky scanning GFP reporter with cap-proximal upstream AUG, western blot; assay type: cell-based, human; conditions: upstream AUG with 16 nt 5′UTR
Excerpt: FIGS. 1A-G: Identification and initial characterization of eIF1-eIF4G1 inhibitors using a high-throughput drug screen (HTS). (1A) A flowchart describing the steps of the recombinant eIF1-eIF4G1 split-RL HTS. (1B) Selection of drugs that inhibit leaky scanning. HEK293T cells were transfected with a short 5′UTR bearing GFP reporter gene described on the top, treated with the indicated HTS hits, and then analyzed by western blot with GFP antibody. US and DS denote upstream and downstream AUG initiation sites, respectively. (1C) A graph showing the change in the ratio of the upstream and downstream AUG following treatment with the indicated drugs. (1D) The chemical structure of the eIF1-eIF4G1 inhibitors, i14G1-10 and i14G1-12. (1E) His-tagged eIF4G1 and His-tagged eIF1 were expressed in BL21 bacteria and purified using nickel NTA beads. Purified His-tagged eIF4G1 and His-tagged eIF1 were incubated with the indicated doses of either i14G1-10 (0-256 μM) or i14G1-12 (0-256 μM) for 5 minutes, followed by fluorescence measurement. For eIF4G1 excitation was at 280 nm and emission was at 350 nm. For eIF1 excitation was at 274 nm and emission was at 304 nm. The data shown represent three independent replicates. IC50 was calculated using Graphpad prism 9. (1F-1G) Western blots of GST pull down. […]
To address the functional significance of the temporal eIF1-eIF4G1 interaction, the inventors set out to develop pharmacological tools against this complex. To this end, the split-Renilla luciferase (RL) complementation assay previously found to be an efficient readout of eIF1 and eIF4G1 interaction in mammalian cells and a highly sensitive and powerful approach for the identification of protein-protein inhibitors was used. […] As knockdown of either eIF1 or eIF4G1 and interference with eIF1-eIF4G1 interaction led to the arrest of leaky scanning from cap-proximal AUG, the selected compounds were analyzed for their effect on initiation from cap-proximal AUG. […]

[2] = biological target: T1, eIF1-eIF4G1 complex (Homo sapiens, UniProt Q04637); test: Co-immunoprecipitation of endogenous eIF4G1 with HA-eIF1; assay type: cell-based; conditions: ER stress, Thapsigargin 1 μM, 1 hour
T1 construct: co-immunoprecipitation of endogenous eIF4G1 in HEK293T cells expressing HA-eIF1 or HA-eIF4E was performed; endogenous in cells; host or cells: HEK293T (eIF4G1 endogenous; HA-eIF1 transfected)
Procedure: (§1) FIGS. 2A-C: The effect of i14G1-10 and i14G1-12 on eIF1-eIF4G1 and eIF4E-eIF4G1 complexes. (2A-B) HA-eIF1 and HA-eIF4E were each transfected into HEK293T cells and 48 h after transfection cells were treated with DMSO or i14G1-10 (2A) or i14G1-12 (2B) for 4 h, followed by immunoprecipitation of HA-eIF1 or HA-eIF4E using anti-HA-agarose beads. Western blot was run to check co-immunoprecipitation of endogenous eIF4G1 with HA-eIF1 or HA-eIF4E. The graphs represent the co-immunoprecipitation of eIF4G1 with HA-eIF1 (right) or HA-eIF4E (left). Co—IP data shown as mean±SEM of 4-7 independent experiments. The asterisks denote statistically significant difference compared to DMSO, according to Student's t-tests (one-tailed, paired). *p<0.05. (2C) HEK293T cells were treated with DMSO, i14G1-10, or i14G1-12 for 4 h, followed by cell lysis. Respective cell lysates were incubated with cap analog (γ-Aminohexyl-m7GTP) beads for 2 h to precipitate bound eIF4E. Western blot was performed to check co-precipitation of eIF4G1 along with eIF4E on the cap-analog beads. The graph represents the binding fraction of eIF4G1 and eIF4E to the cap-analog beads (mean±SEM) with DMSO (black), i14G1-10 (blue), and i14G1-12 (red), n=6. The asterisks denote statistically significant difference compared to DMSO, according to Student's t-tests (one-tailed, paired). *p<0.05; **p<0.01.
(§2) Co-immunoprecipitation. HEK293T cells were transfected with 5 μg of HA-eIF1 or HA-eIF4E plasmids along with 10 ng GFP plasmid to check for transfection efficiency using Jetprime reagent as per manufacturer's protocol. After 48 h, HA-eIF1 and HA-eIF4E expressing HEK293T cells were incubated with DMSO, i14G1-10 (20 μM), and […] (10 μM). 4 h later, cells were lysed using IP buffer (20 mM Tris pH8, 125 mM NaCl, 10% glycerol, 50 mM NaF, 1 mM […], 0.5% NP-40, and 0.2 mM EDTA) supplemented with fresh protease inhibitor cocktail (1:100) and PMSF 200 μM (1:100). Protein extract was taken for immunoprecipitation using either monoclonal anti-HA-agarose antibody (Sigma) or control IgG antibody in IP buffer, at 4° C. for 2 hours. […]

[3] = biological target: T2, eIF4E-eIF4G1 complex (Homo sapiens, UniProt Q04637); test: Co-immunoprecipitation of endogenous eIF4G1 with HA-eIF4E; assay type: cell-based; conditions: ER stress, Thapsigargin 1 μM, 1 hour
T2 construct: co-immunoprecipitation of endogenous eIF4G1 in HEK293T cells expressing HA-eIF1 or HA-eIF4E was performed; endogenous in cells; host or cells: HEK293T (eIF4G1 endogenous; HA-eIF4E transfected)
Procedure: as §1, §2

T1 sequence (Q04637 whole entry, one chain of several): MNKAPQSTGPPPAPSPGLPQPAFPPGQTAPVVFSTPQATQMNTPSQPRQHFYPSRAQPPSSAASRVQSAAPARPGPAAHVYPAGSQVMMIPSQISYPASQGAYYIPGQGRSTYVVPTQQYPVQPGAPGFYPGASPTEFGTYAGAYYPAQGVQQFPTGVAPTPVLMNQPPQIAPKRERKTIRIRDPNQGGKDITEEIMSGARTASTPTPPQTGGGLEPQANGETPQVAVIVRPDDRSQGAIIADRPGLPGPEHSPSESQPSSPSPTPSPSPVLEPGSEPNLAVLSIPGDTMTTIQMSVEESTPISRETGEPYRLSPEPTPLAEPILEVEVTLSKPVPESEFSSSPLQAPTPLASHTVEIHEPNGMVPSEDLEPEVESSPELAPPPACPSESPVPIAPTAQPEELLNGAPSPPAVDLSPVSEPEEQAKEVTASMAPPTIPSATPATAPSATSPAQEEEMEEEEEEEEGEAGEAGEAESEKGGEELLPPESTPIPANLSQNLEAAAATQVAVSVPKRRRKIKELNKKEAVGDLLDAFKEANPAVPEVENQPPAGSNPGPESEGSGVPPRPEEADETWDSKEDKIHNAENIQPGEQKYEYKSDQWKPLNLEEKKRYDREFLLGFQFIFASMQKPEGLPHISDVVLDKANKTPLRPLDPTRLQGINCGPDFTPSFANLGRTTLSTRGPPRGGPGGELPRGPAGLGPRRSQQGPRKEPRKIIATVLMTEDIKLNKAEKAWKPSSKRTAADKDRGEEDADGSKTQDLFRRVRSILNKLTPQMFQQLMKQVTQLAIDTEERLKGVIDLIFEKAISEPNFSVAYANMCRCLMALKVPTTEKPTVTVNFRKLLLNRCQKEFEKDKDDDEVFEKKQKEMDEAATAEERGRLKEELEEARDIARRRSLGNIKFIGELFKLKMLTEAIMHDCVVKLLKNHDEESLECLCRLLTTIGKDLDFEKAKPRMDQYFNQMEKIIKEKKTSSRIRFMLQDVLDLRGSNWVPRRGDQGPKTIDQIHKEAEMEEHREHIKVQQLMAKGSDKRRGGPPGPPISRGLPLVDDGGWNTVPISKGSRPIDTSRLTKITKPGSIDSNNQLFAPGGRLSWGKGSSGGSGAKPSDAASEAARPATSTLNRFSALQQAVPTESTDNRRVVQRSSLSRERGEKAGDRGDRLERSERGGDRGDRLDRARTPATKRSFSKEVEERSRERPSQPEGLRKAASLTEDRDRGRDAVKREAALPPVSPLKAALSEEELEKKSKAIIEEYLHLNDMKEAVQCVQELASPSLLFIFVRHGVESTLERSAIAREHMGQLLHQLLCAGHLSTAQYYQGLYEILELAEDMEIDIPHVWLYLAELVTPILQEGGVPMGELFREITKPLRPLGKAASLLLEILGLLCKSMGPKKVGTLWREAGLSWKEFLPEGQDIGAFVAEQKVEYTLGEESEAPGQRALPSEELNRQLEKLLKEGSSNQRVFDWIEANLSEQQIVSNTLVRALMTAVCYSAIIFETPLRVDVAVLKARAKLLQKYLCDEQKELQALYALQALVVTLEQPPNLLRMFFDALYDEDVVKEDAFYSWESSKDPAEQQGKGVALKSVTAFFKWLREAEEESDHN
T2 sequence (Q04637 whole entry): as the sequence (Q04637 whole entry, one chain of several) above
T2 sequence (P06730 whole entry partner): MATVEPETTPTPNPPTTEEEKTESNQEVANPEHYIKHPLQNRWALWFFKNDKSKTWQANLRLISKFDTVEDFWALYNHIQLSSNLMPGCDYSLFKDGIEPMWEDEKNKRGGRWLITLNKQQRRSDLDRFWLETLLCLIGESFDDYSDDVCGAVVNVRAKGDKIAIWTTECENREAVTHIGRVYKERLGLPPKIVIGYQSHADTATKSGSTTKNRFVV

Structure (SMILES)	upstream to downstream AUG ratio (leaky scanning) [1]	reduction of co-precipitated eIF4G1 with HA-eIF1 [2] [%]	level of co-precipitated eIF4G1 with HA-eIF4E [3]
Cc1ccc(/C(=C\C=C(C#N)C#N)Sc2nc3ccccc3s2)cc1 [i14G1-11]	selectively changed the upstream to downstream ratio by inhibiting leaky scanning from the cap-proximal AUG		
C/C=C(/C)C(=O)O[C@H]1C(C)=C2[C@H]([C@@H]1OC(=O)CCCCCCC)[C@@](C)(OC(C)=O)C[C@H](OC(=O)CCC)[C@@]1(O)[C@H]2OC(=O)[C@@]1(C)O [Thapsigargin, reference compound]		50	no significant change
